Source: PubChem BioAssay AID272 (DTP/NCI, 2004)
“And” between values parts separate entries of the source, which are not always exact repeats. Identical values can stand only once. Inconclusive results are not listed.

Tested on: Lewis lung carcinoma i.m., BDF1 mice, T/C %
Experiment: NCI In Vivo Anticancer Drug Screen. Data for tumor model Lewis Lung Carcinoma (intramuscular) in B6D2F1 (BDF1) mice
How it was run: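 Tumour-bearing mice were dosed with compound, and either their survival or their tumour size was measured. Results were expressed relative to vehicle-treated controls as T/C.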

CC1CCC(NC(=O)N(CCCl)N=O)CC1 (centres undefined)
T/C (endpoint: mean tumor weight, dose: 3.12 mg/kg/injection, schedule: Q01DX011 (ip), vehicle: saline, higher = larger tumour): 83 % of control
T/C (endpoint: mean tumor weight, dose: 3.12 mg/kg/injection, schedule: Q06HX008 (ip), vehicle: saline, higher = larger tumour): 80 % of control
T/C (endpoint: mean tumor weight, dose: 6.25 mg/kg/injection, schedule: Q01DX011 (ip), vehicle: saline, higher = larger tumour): 63 % of control
T/C (endpoint: mean tumor weight, dose: 6.25 mg/kg/injection, schedule: Q06HX004 (ip), vehicle: saline, higher = larger tumour): 41 % of control
T/C (endpoint: mean tumor weight, dose: 6.25 mg/kg/injection, schedule: Q06HX008 (ip), vehicle: saline, higher = larger tumour): 93 % of control
T/C (endpoint: mean tumor weight, dose: 8.4 mg/kg/injection, schedule: Q01DX001 (sc), vehicle: Klucel (hydroxypropylcellulose) (HPC), higher = larger tumour): 111 % of control
T/C (endpoint: mean tumor weight, dose: 12.5 mg/kg/injection, schedule: Q01DX001 (ip), vehicle: saline, higher = larger tumour): 76 % of control
T/C (endpoint: mean tumor weight, dose: 12.5 mg/kg/injection, schedule: Q06HX008 (ip), vehicle: saline, higher = larger tumour): 11 % of control
T/C (endpoint: mean tumor weight, dose: 12.5 mg/kg/injection, schedule: Q08DX002 (ip), vehicle: saline, higher = larger tumour): 99 % of control
T/C (endpoint: mean tumor weight, dose: 14.0 mg/kg/injection, schedule: Q01DX001 (sc), vehicle: Klucel (hydroxypropylcellulose) (HPC), higher = larger tumour): 56 % of control
T/C (endpoint: mean tumor weight, dose: 23.0 mg/kg/injection, schedule: Q01DX001 (sc), vehicle: Klucel (hydroxypropylcellulose) (HPC), higher = larger tumour): 35 % of control
T/C (endpoint: mean tumor weight, dose: 25.0 mg/kg/injection, schedule: Q01DX001 (ip), vehicle: saline, higher = larger tumour): 38 % of control
T/C (endpoint: mean tumor weight, dose: 25.0 mg/kg/injection, schedule: Q08DX002 (ip), vehicle: saline, higher = larger tumour): 30 % of control
T/C (endpoint: mean tumor weight, dose: 39.0 mg/kg/injection, schedule: Q01DX001 (sc), vehicle: Klucel (hydroxypropylcellulose) (HPC), higher = larger tumour): 21 % of control
T/C (endpoint: mean tumor weight, dose: 50.0 mg/kg/injection, schedule: Q01DX001 (ip), vehicle: saline, higher = larger tumour): 12 % of control
T/C (endpoint: mean tumor weight, dose: 50.0 mg/kg/injection, schedule: Q08DX002 (ip), vehicle: saline, higher = larger tumour): 8 % of control
T/C (endpoint: median survival time, dose: 1.0 mg/kg/injection, schedule: Q01DX009 (ip), vehicle: saline + alcohol, higher = longer survival): 112 % of control
T/C (endpoint: median survival time, dose: 2.5 mg/kg/injection, schedule: Q01DX015 (ip), vehicle: saline, higher = longer survival): 111 % of control
T/C (endpoint: median survival time, dose: 3.12 mg/kg/injection, schedule: Q01DX017 (ip), vehicle: saline, higher = longer survival): 100 % of control
T/C (endpoint: median survival time, dose: 3.12 mg/kg/injection, schedule: Q06HX012 (ip), vehicle: saline, higher = longer survival): 97 % of control
T/C (endpoint: median survival time, dose: 4.0 mg/kg/injection, schedule: Q01DX009 (ip), vehicle: saline + alcohol, higher = longer survival): 104 % of control and 118 % of control
T/C (endpoint: median survival time, dose: 4.0 mg/kg/injection, schedule: Q01DX011 (ip), vehicle: saline with Tween-80, higher = longer survival): 100 % of control and 114 % of control
T/C (endpoint: median survival time, dose: 5.0 mg/kg/injection, schedule: Q01DX015 (ip), vehicle: saline, higher = longer survival): 97 % of control and 107 % of control
T/C (endpoint: median survival time, dose: 6.25 mg/kg/injection, schedule: Q06HX004 (ip), vehicle: saline, higher = longer survival): 106 % of control
T/C (endpoint: median survival time, dose: 6.3 mg/kg/injection, schedule: Q01DX015 (ip), vehicle: saline, higher = longer survival): 95 % of control
T/C (endpoint: median survival time, dose: 7.5 mg/kg/injection, schedule: Q07DX003 (ip), vehicle: saline, higher = longer survival): 90 % of control
T/C (endpoint: median survival time, dose: 7.9 mg/kg/injection, schedule: Q01DX015 (ip), vehicle: saline, higher = longer survival): 90 % of control
T/C (endpoint: median survival time, dose: 8.0 mg/kg/injection, schedule: Q01DX009 (ip), vehicle: saline + alcohol, higher = longer survival): 156 % of control
T/C (endpoint: median survival time, dose: 8.4 mg/kg/injection, schedule: Q01DX001 (sc), vehicle: Klucel (hydroxypropylcellulose) (HPC), higher = longer survival): 114 % of control
T/C (endpoint: median survival time, dose: 10.0 mg/kg/injection, schedule: Q01DX001 (ip), vehicle: saline + alcohol, higher = longer survival): 116 % of control
T/C (endpoint: median survival time, dose: 12.5 mg/kg/injection, schedule: Q01DX001 (ip), vehicle: saline, higher = longer survival): 104 % of control
T/C (endpoint: median survival time, dose: 12.5 mg/kg/injection, schedule: Q06HX004 (ip), vehicle: saline, higher = longer survival): 158 % of control
T/C (endpoint: median survival time, dose: 12.5 mg/kg/injection, schedule: Q06HX012 (ip), vehicle: saline, higher = longer survival): 93 % of control
T/C (endpoint: median survival time, dose: 12.5 mg/kg/injection, schedule: Q08DX003 (ip), vehicle: saline, higher = longer survival): 108 % of control
T/C (endpoint: median survival time, dose: 14.0 mg/kg/injection, schedule: Q01DX001 (sc), vehicle: Klucel (hydroxypropylcellulose) (HPC), higher = longer survival): 158 % of control
T/C (endpoint: median survival time, dose: 14.0 mg/kg/injection, schedule: Q07DX003 (ip), vehicle: saline, higher = longer survival): 104 % of control
T/C (endpoint: median survival time, dose: 15.0 mg/kg/injection, schedule: Q07DX003 (ip), vehicle: saline, higher = longer survival): 90 % of control
T/C (endpoint: median survival time, dose: 20.0 mg/kg/injection, schedule: Q01DX001 (ip), vehicle: saline + alcohol, higher = longer survival): 92 % of control
T/C (endpoint: median survival time, dose: 23.0 mg/kg/injection, schedule: Q01DX001 (sc), vehicle: Klucel (hydroxypropylcellulose) (HPC), higher = longer survival): 177 % of control
T/C (endpoint: median survival time, dose: 23.0 mg/kg/injection, schedule: Q07DX003 (ip), vehicle: saline, higher = longer survival): 112 % of control
T/C (endpoint: median survival time, dose: 24.0 mg/kg/injection, schedule: Q01DX001 (ip), vehicle: saline, higher = longer survival): 102 % of control
T/C (endpoint: median survival time, dose: 24.0 mg/kg/injection, schedule: Q07DX003 (ip), vehicle: saline, higher = longer survival): 175 % of control
T/C (endpoint: median survival time, dose: 25.0 mg/kg/injection, schedule: Q01DX001 (ip), vehicle: saline, higher = longer survival): 122 % of control
T/C (endpoint: median survival time, dose: 25.0 mg/kg/injection, schedule: Q08DX003 (ip), vehicle: saline, higher = longer survival): 91 % of control
T/C (endpoint: median survival time, dose: 30.0 mg/kg/injection, schedule: Q01DX001 (ip), vehicle: saline + alcohol, higher = longer survival): 92 % of control
T/C (endpoint: median survival time, dose: 30.0 mg/kg/injection, schedule: Q01DX001 (ip), vehicle: saline, higher = longer survival): 197 % of control
T/C (endpoint: median survival time, dose: 30.0 mg/kg/injection, schedule: Q07DX003 (ip), vehicle: saline, higher = longer survival): 197 % of control and 204 % of control
T/C (endpoint: median survival time, dose: 30.0 mg/kg/injection, schedule: Q14DX002 (ip), vehicle: saline, higher = longer survival): 187 % of control
T/C (endpoint: median survival time, dose: 39.0 mg/kg/injection, schedule: Q07DX003 (ip), vehicle: saline, higher = longer survival): 151 % of control
T/C (endpoint: median survival time, dose: 45.0 mg/kg/injection, schedule: Q01DX001 (ip), vehicle: saline, higher = longer survival): 151 % of control
T/C (endpoint: median survival time, dose: 45.0 mg/kg/injection, schedule: Q07DX003 (ip), vehicle: saline, higher = longer survival): 117 % of control
T/C (endpoint: median survival time, dose: 45.0 mg/kg/injection, schedule: Q14DX002 (ip), vehicle: saline, higher = longer survival): 117 % of control
T/C (endpoint: median survival time, dose: 50.0 mg/kg/injection, schedule: Q01DX001 (ip), vehicle: saline, higher = longer survival): 181 % of control
T/C (endpoint: median survival time, dose: 56.0 mg/kg/injection, schedule: Q07DX003 (ip), vehicle: saline, higher = longer survival): 100 % of control

C[C@]12C=CC(=O)C=C1CC[C@@H]1[C@@H]2C(=O)C[C@@]2(C)[C@H]1CC[C@]2(O)C(=O)CO
T/C (endpoint: mean tumor weight, dose: 23.0 mg/kg/injection, schedule: Q01DX009 (ip), vehicle: water, higher = larger tumour): 70 % of control
T/C (endpoint: mean tumor weight, dose: 25.0 mg/kg/injection, schedule: Q01DX011 (ip), vehicle: saline, higher = larger tumour): 45 % of control
T/C (endpoint: mean tumor weight, dose: 39.0 mg/kg/injection, schedule: Q01DX009 (ip), vehicle: water, higher = larger tumour): 50 % of control
T/C (endpoint: mean tumor weight, dose: 50.0 mg/kg/injection, schedule: Q01DX011 (ip), vehicle: saline, higher = larger tumour): 36 % of control
T/C (endpoint: mean tumor weight, dose: 100.0 mg/kg/injection, schedule: Q01DX011 (ip), vehicle: saline, higher = larger tumour): 17 % of control
T/C (endpoint: mean tumor weight, dose: 200.0 mg/kg/injection, schedule: Q01DX011 (ip), vehicle: saline, higher = larger tumour): 5 % of control
T/C (endpoint: median survival time, dose: 23.0 mg/kg/injection, schedule: Q01DX009 (ip), vehicle: none, higher = longer survival): 109 % of control
T/C (endpoint: median survival time, dose: 23.0 mg/kg/injection, schedule: Q01DX009 (ip), vehicle: water, higher = longer survival): 106 % of control
T/C (endpoint: median survival time, dose: 25.0 mg/kg/injection, schedule: Q01DX011 (ip), vehicle: carboxymethylcellulose (CMC), higher = longer survival): 106 % of control and 113 % of control
T/C (endpoint: median survival time, dose: 25.0 mg/kg/injection, schedule: Q01DX011 (ip), vehicle: saline, higher = longer survival): 112 % of control
T/C (endpoint: median survival time, dose: 25.0 mg/kg/injection, schedule: Q01DX011 (ip), vehicle: water, higher = longer survival): 110 % of control
T/C (endpoint: median survival time, dose: 39.0 mg/kg/injection, schedule: Q01DX009 (ip), vehicle: none, higher = longer survival): 104 % of control
T/C (endpoint: median survival time, dose: 39.0 mg/kg/injection, schedule: Q01DX009 (ip), vehicle: water, higher = longer survival): 90 % of control
T/C (endpoint: median survival time, dose: 50.0 mg/kg/injection, schedule: Q01DX011 (ip), vehicle: carboxymethylcellulose (CMC), higher = longer survival): 115 % of control and 121 % of control
T/C (endpoint: median survival time, dose: 50.0 mg/kg/injection, schedule: Q01DX011 (ip), vehicle: saline, higher = longer survival): 104 % of control
T/C (endpoint: median survival time, dose: 50.0 mg/kg/injection, schedule: Q01DX011 (ip), vehicle: water, higher = longer survival): 108 % of control
T/C (endpoint: median survival time, dose: 52.0 mg/kg/injection, schedule: Q01DX007 (sc), vehicle: saline, higher = longer survival): 118 % of control and 119 % of control
T/C (endpoint: median survival time, dose: 65.0 mg/kg/injection, schedule: Q01DX009 (ip), vehicle: none, higher = longer survival): 95 % of control
T/C (endpoint: median survival time, dose: 86.0 mg/kg/injection, schedule: Q01DX007 (sc), vehicle: saline, higher = longer survival): 95 % of control and 113 % of control
T/C (endpoint: median survival time, dose: 100.0 mg/kg/injection, schedule: Q01DX011 (ip), vehicle: saline, higher = longer survival): 102 % of control
T/C (endpoint: median survival time, dose: 100.0 mg/kg/injection, schedule: Q01DX011 (ip), vehicle: water, higher = longer survival): 94 % of control
T/C (endpoint: median survival time, dose: 108.0 mg/kg/injection, schedule: Q01DX009 (ip), vehicle: none, higher = longer survival): 46 % of control
T/C (endpoint: median survival time, dose: 144.0 mg/kg/injection, schedule: Q01DX007 (sc), vehicle: saline, higher = longer survival): 105 % of control
T/C (endpoint: median survival time, dose: 180.0 mg/kg/injection, schedule: Q01DX009 (ip), vehicle: none, higher = longer survival): 42 % of control
T/C (endpoint: median survival time, dose: 240.0 mg/kg/injection, schedule: Q01DX007 (sc), vehicle: saline, higher = longer survival): 68 % of control
